Values of other authors as cited in patent US7608126B1, “Method for horticulture plant rejuvenation” (priority 2006, dated 2009).

Structure (SMILES): C[C@]12CC[C@H](O)CC1=CC[C@@H]1[C@@H]2CC[C@]2(C)C(=O)CC[C@@H]12 [DHEA, dehydroepiandrosterone]
- solubility in water: not very soluble in water
